{"source": "paper PMC10291704", "about": "(Biology of blood and marrow transplantation : journal of …, 2019)", "key": {"[1]": {"test_system": "human cell-line model of busulfan-resistant acute myelogenous leukemia", "conditions": "cited from earlier work; for inhibitory concentration: busulfan-resistant AML cell line"}, "[2]": {"type": "in vivo, human"}, "[3]": {"conditions": "cited from earlier work"}, "[4]": {"conditions": "16 patients, 40 mg/m^2/day; cited from earlier work"}, "[5]": {"conditions": "between WBC of 0.3 × 10^3 /μL and 259 × 10^3 /μL; cited from earlier work"}}, "note": "Values joined by “and” are separate entries in the source; they are usually repeats but may differ in a detail not shown here. Identical values can stand only once. Like-named read-outs stand apart in the source and are kept apart here.", "data": [{"smiles": "Nc1nc(F)nc2c1ncn2[C@@H]1O[C@H](CO)[C@@H](O)[C@@H]1O", "note": "[fludarabine]", "values": [{"measurement": "inhibitory concentration", "setting": "[1]", "result": 3.0, "unit": "µM"}]}, {"smiles": "Nc1nc(Cl)nc2c1ncn2[C@@H]1O[C@H](CO)[C@@H](O)[C@@H]1F", "note": "[clo-fara, clofarabine]", "values": [{"measurement": "Additive error", "setting": "[2]; bootstrap mean value", "result": 0.36, "unit": "ng/mL"}, {"measurement": "Proportional residual unexplained variability", "setting": "[2]; bootstrap mean value", "result": 32.7, "unit": "%"}, {"measurement": "Volume of the peripheral compartment (Vp)", "setting": "[2]; bootstrap mean value", "result": 47.3, "unit": "L/15kg"}, {"measurement": "between-subject variability for volume of central compartment", "setting": "[2]; final model", "result": 40, "unit": "%"}, {"measurement": "Additive error", "setting": "[2]; final model parameter estimate", "result": 0.36, "unit": "ng/mL"}, {"measurement": "Proportional residual unexplained variability", "setting": "[2]; final model parameter estimate", "result": "33% and 33.2%"}, {"measurement": "Volume of the peripheral compartment (Vp)", "setting": "[2]; final model parameter estimate", "result": "47 L/15kg and 47.4 L/15kg"}, {"measurement": "AUC", "setting": "[2]; human, in vivo", "result": 3300, "unit": "ng·h/mL"}, {"measurement": "Inter-compartmental CL", "setting": "[2]; human, in vivo", "result": 164, "unit": "mL/min/kg"}, {"measurement": "Maturation half-time (Thalf) of age effect on CL", "setting": "[2]; human, in vivo", "result": 0.41, "unit": "years"}, {"measurement": "Typical value for clo-fara CL", "setting": "[2]; human, in vivo", "result": 23.4, "unit": "L/h/15kg"}, {"measurement": "between-subject variability for clo-fara CL", "setting": "[2]; human, in vivo", "result": 26, "unit": "%"}, {"measurement": "clearance", "setting": "[2]; human, in vivo", "result": 390, "unit": "mL/min"}, {"measurement": "intercompartmental CL", "setting": "[2]; human, in vivo", "result": 9.8, "unit": "L/h/15kg"}, {"measurement": "AUC at 4 daily doses", "setting": "[2]; human, in vivo, 10 mg/m2", "result": 1200, "unit": "ng·h/mL"}, {"measurement": "AUC(0-t)", "setting": "[2]; human, in vivo, 10 mg/m2, AUC0–24, median (range)", "result": 300, "unit": "ng·h/mL"}, {"measurement": "AUC at 4 daily doses", "setting": "[2]; human, in vivo, 30 mg/m2", "result": 3300, "unit": "ng·h/mL"}, {"measurement": "AUC(0-t)", "setting": "[2]; human, in vivo, 30 mg/m2, AUC0–24, median (range)", "result": 820, "unit": "ng·h/mL"}, {"measurement": "AUC0–24, median (range)", "setting": "[2]; human, in vivo, 40 mg/m2", "result": "1.04 (0.87 – 4.0) mg•hr/L"}, {"measurement": "AUC at 5 daily doses", "setting": "[2]; human, in vivo, 40 mg/m2", "result": 5200, "unit": "ng·h/mL"}, {"measurement": "AUC(0-t)", "setting": "[2]; human, in vivo, 40 mg/m2, AUC0–24, median (range)", "result": 780, "unit": "ng·h/mL"}, {"measurement": "AUC(0-t)", "setting": "[2]; human, in vivo, 40 mg/m2, AUC0–24, outlier value of one subject", "result": 4000, "unit": "ng·h/mL"}, {"measurement": "AUC(0-t)", "setting": "[2]; human, in vivo, 40 mg/m2, AUC0–24 of the other subjects", "result": "≤ 1170", "unit": "ng·h/mL"}, {"measurement": "inhibitory concentration", "setting": "[1]", "result": 0.06, "unit": "µM"}, {"measurement": "difference in cytotoxic activity, clofarabine vs fludarabine", "setting": "[1]; from inhibitory concentrations", "result": "~50", "unit": "fold"}, {"measurement": "dose excreted in the urine unchanged", "setting": "[3]; 24-hour urine collections in pediatric studies", "result": "49–60%"}, {"measurement": "hepatic and non-hepatic metabolic conversion", "setting": "[3]", "result": 0.2, "unit": "%"}, {"measurement": "variability observed in clo-fara PK parameters (CL, AUC, volume of distribution)", "setting": "[4]", "result": "2–3 fold"}, {"measurement": "increase of predicted volume of the central compartment with WBC", "setting": "[5]", "result": 2.38, "unit": "fold"}]}]}
